# Experimental data as given in patent US20250296949A1, “HIGH PURITY NON-ANIMAL DERIVED UDCA” (priority 2021, published 2025).
# Assay: DVS mass change of crystalline 3,7-DKCA salts
# Type: physicochemical
row,SMILES,DVS mass change 5-95% RH (wt. %)
1,"CC(C)NC(C)C.C[C@H](CCC(=O)O)[C@H]1CC[C@H]2[C@@H]3C(=O)C[C@@H]4CC(=O)CC[C@]4(C)[C@H]3CC[C@]12C [Diisopropylamine salt, diisopropylamine salt of 3,7-DKCA]",2.53
2,"C[C@H](CCC(=O)O)[C@H]1CC[C@H]2[C@@H]3C(=O)C[C@@H]4CC(=O)CC[C@]4(C)[C@H]3CC[C@]12C.NCCN [Ethylenediamine salt, ethylenediamine salt of 3,7-DKCA]",19.60
3,"CC(C)(C)N.C[C@H](CCC(=O)O)[C@H]1CC[C@H]2[C@@H]3C(=O)C[C@@H]4CC(=O)CC[C@]4(C)[C@H]3CC[C@]12C [tert-Butylamine salt, tert-butylamine salt of 3,7-DKCA]",10.89
